Source: PMC8286840, “Identifying SARS-CoV-2 antiviral compounds by screening for small molecule inhibitors of Nsp3 papain-like protease” (Biochemical Journal, 2021)
Where a name gives a salt, the structure may show the parent alone. Read-outs that look alike come from different tables or passages of the source.

How the values were obtained:
[1] = target: T1, SARS-CoV-2 PLpro (nsp3 1564–1878) (Severe acute respiratory syndrome coronavirus 2, UniProt P0DTD1); experiment: biochemical; set-up: FRET-quenched peptide (Pro3) cleavage by PLpro, 10 min pre-incubation, slope over 20 min, normalised to no-compound control; details: low concentration screen, read-out: % of control remaining
[2] = target: T1, SARS-CoV-2 PLpro (nsp3 1564–1878); experiment: biochemical; set-up: FRET-quenched peptide (Pro3) cleavage by PLpro, 10 min pre-incubation, slope over 20 min, normalised to no-compound control; details: high concentration screen, read-out: % of control remaining

With `CC[C@H](C)[C@H](NC(=O)[C@H](Cc1ccc(O)cc1)NC(=O)[C@@H](NC(=O)[C@H](CCCNC(=N)N)NC(=O)[C@@H](N)CC(=O)O)C(C)C)C(=O)N[C@@H](Cc1c[nH]cn1)C(=O)N1CCC[C@H]1C(=O)O` [Angiotensin (1-7)] the remaining activity at 1.25 µM ([1]; Well no.=6176) was 96.1%, the remaining activity at 1.25 µM ([1]; Well no.=8368) was 99.7% and the remaining activity at 3.75 µM ([2]; Well no.=6176) was 96.5%. The remaining activity at 3.75 µM ([2]; Well no.=8368) was 96.1%.
`CCCC/C=C\CCCCCCCCC(=O)O` [10(Z)-Pentadecenoic acid] gave a remaining activity at 1.25 µM ([1]; Well no.=4542) of 89.2% and a remaining activity at 3.75 µM ([2]; Well no.=4542) of 97.8%.
With `Oc1ccc(C2CNCCc3c2cc(O)c(O)c3Cl)cc1` (stereo not shown) [Fenoldopam (mesylate)] the remaining activity at 1.25 µM ([1]; Well no.=6267) was 106% and the remaining activity at 3.75 µM ([2]; Well no.=6267) was 103%.
With `CC(C)C[C@H]1C(=O)O[C@H](Cc2ccccc2)C(=O)N(C)[C@@H](CC(C)C)C(=O)O[C@H](C)C(=O)N(C)[C@@H](CC(C)C)C(=O)O[C@H](Cc2ccccc2)C(=O)N(C)[C@@H](CC(C)C)C(=O)O[C@H](C)C(=O)N1C` [PF 1022A] the remaining activity at 1.25 µM ([1]; Well no.=7942) was 101% and the remaining activity at 3.75 µM ([2]; Well no.=7942) was 114%.
`Cc1ccc(F)cc1C(=O)Nc1ccc(C(=O)N2Cc3cccn3Cc3ccccc32)c(Cl)c1` [N-[3-chloro-4-(5H-pyrrolo[2,1-c][1,4]benzodiazepin-10(11H)-ylcarbonyl)phenyl]-5-fluoro-2-methylbenzamide] was tested, and the remaining activity at 1.25 µM ([1]; Well no.=5601) was 103% and the remaining activity at 3.75 µM ([2]; Well no.=5601) was 107%.
With `Nc1ccc(C(=O)O)cc1` [4-Aminobenzoic acid] the remaining activity at 1.25 µM ([1]; Well no.=6203) was 97.3% and the remaining activity at 3.75 µM ([2]; Well no.=6203) was 101%.
In the case of `N[C@@H](CC(=O)N1CCn2c(nnc2C(F)(F)F)C1)Cc1cc(F)c(F)cc1F` [Sitagliptin phosphate monohydrate], the remaining activity at 1.25 µM ([1]; Well no.=4644) was 105% and the remaining activity at 3.75 µM ([2]; Well no.=4644) was 102%.
For `NCCC(=O)NCCc1c[nH]cn1` [Carcinine dihydrochloride], the remaining activity at 1.25 µM ([1]; Well no.=237) was 95.2% and the remaining activity at 3.75 µM ([2]; Well no.=237) was 97.8%.
In the case of `CCC[C@H](N[C@@H](C)C(=O)N1[C@H](C(=O)O)C[C@@H]2CCCC[C@@H]21)C(=O)OCC` [Perindopril Erbumine], the remaining activity at 1.25 µM ([1]; Well no.=8778) was 89.7% and the remaining activity at 3.75 µM ([2]; Well no.=8778) was 84.8%.
Work on `O=C(O)c1cc(O)ccc1O` [Gentisic acid] yielded a remaining activity at 1.25 µM ([1]; Well no.=3955) of 110% and a remaining activity at 3.75 µM ([2]; Well no.=3955) of 100%.
For `CC(C)(C)C(O)/C(=C\c1ccc(Cl)cc1)n1cncn1` (stereo not shown) [Uniconazole], the remaining activity at 1.25 µM ([1]; Well no.=8248) was 104% and the remaining activity at 3.75 µM ([2]; Well no.=8248) was 102%.
`COc1ccc(CN(CCN(C)C)c2ccccn2)cc1` [Pyrilamine maleate] was tested, and the remaining activity at 1.25 µM ([1]; Well no.=814) was 101% and the remaining activity at 3.75 µM ([2]; Well no.=814) was 104%.
`CC(=O)OC[C@H](N)C(=O)O` [O-Acetylserine] gave a remaining activity at 1.25 µM ([1]; Well no.=6965) of 101% and a remaining activity at 3.75 µM ([2]; Well no.=6965) of 104%.
For `COC(=O)C1=C(C)NC(C)=C([N+](=O)[O-])C1c1ccccc1C(F)(F)F` (racemic), the remaining activity at 1.25 µM ([1]; Well no.=133) was 108% and the remaining activity at 3.75 µM ([2]; Well no.=133) was 105%.
`CCCOC(=O)c1c(-c2ccccc2)nc(CC)c(C(=O)SCC)c1CCC` [MRS 1523] was tested, and the remaining activity at 1.25 µM ([1]; Well no.=1064) was 95.3% and the remaining activity at 3.75 µM ([2]; Well no.=1064) was 94.2%.
`COc1cccc2cc(-c3nc([C@H]4CC[C@H](C(=O)O)CC4)n4ncnc(N)c34)[nH]c12` [OSI-027] gave a remaining activity at 1.25 µM ([1]; Well no.=4960) of 99.2% and a remaining activity at 3.75 µM ([2]; Well no.=4960) of 95.6%.
With `CC1(C)CC(=O)c2c(C(F)(F)F)nn(-c3ccc(C(N)=O)c(N[C@H]4CC[C@H](O)CC4)c3)c2C1` [SNX-2112] the remaining activity at 1.25 µM ([1]; Well no.=4635) was 99.3% and the remaining activity at 3.75 µM ([2]; Well no.=4635) was 95.7%.
Compound `BrC1C(Br)C(Br)C(Br)C(Br)C1Br` (stereo not shown) [1,2,3,4,5,6-Hexabromocyclohexane - 1,2,3,4,5,6-Hexabromocyclohexane] has a remaining activity at 1.25 µM ([1]; Well no.=2524) of 96.3% and a remaining activity at 3.75 µM ([2]; Well no.=2524) of 97.7%.
`CN(C)C(=O)Oc1cccc([N+](C)(C)C)c1` [Neostigmine] gave a remaining activity at 1.25 µM ([1]; Well no.=1558) of 106% and a remaining activity at 3.75 µM ([2]; Well no.=1558) of 103%.
Work on `CC(N)C(=O)OC(C)(C)Cc1ccc(Cl)cc1` (stereo not shown) [Alaproclate hydrochloride] yielded a remaining activity at 1.25 µM ([1]; Well no.=208) of 102% and a remaining activity at 3.75 µM ([2]; Well no.=208) of 102%.
Work on `O=C(CCCCCCC(=O)Nc1ccccc1)NO` [Vorinostat (SAHA)] yielded a remaining activity at 1.25 µM ([1]; Well no.=1866) of 87.6% and a remaining activity at 3.75 µM ([2]; Well no.=1866) of 82.8%.
In the case of `O=C(c1ccc(OCCCc2c[nH]cn2)cc1)C1CC1` [Ciproxifan], the remaining activity at 1.25 µM ([1]; Well no.=5316) was 101% and the remaining activity at 3.75 µM ([2]; Well no.=5316) was 97%.
Compound `CC(C)(C)c1nc2c3cc[nH]c(=O)c3c3cc(F)ccc3c2[nH]1` [JAK Inhibitor I] has a remaining activity at 1.25 µM ([1]; Well no.=2455) of 101% and a remaining activity at 3.75 µM ([2]; Well no.=2455) of 103%.
`Clc1ccc(CCC(Cn2ccnc2)Sc2c(Cl)cccc2Cl)cc1` (stereo not shown) [Butoconazole nitrate] was tested, and the remaining activity at 1.25 µM ([1]; Well no.=2204) was 96.3% and the remaining activity at 3.75 µM ([2]; Well no.=2204) was 93.9%.
Compound `C=CC1=C(C)c2cc3[nH]c(cc4nc(cc5[nH]c(cc1n2)c(C)c5CCC(=O)O)C(CCC(=O)O)=C4C)c(C)c3C=C` [Protoporphyrin IX disodium] has a remaining activity at 1.25 µM ([1]; Well no.=1207) of 104% and a remaining activity at 3.75 µM ([2]; Well no.=1207) of 102%.
`O=C(O)C(O)c1cccc(O)c1` (stereo not shown) [3-Hydroxymandelic Acid] showed a remaining activity at 1.25 µM ([1]; Well no.=6879) of 100% and a remaining activity at 3.75 µM ([2]; Well no.=6879) of 98.2%.
In the case of `COc1ccc(-c2ccc3c(N4CCOCC4)nc(N4C[C@@H](C)O[C@@H](C)C4)nc3n2)cc1CO` [KU0063794], the remaining activity at 1.25 µM ([1]; Well no.=2899) was 105% and the remaining activity at 3.75 µM ([2]; Well no.=2899) was 103%.
`CN[C@@H]1[C@H](O)[C@H](NC)[C@H]2O[C@@]3(O)C(=O)C[C@@H](C)O[C@H]3O[C@@H]2[C@H]1O` [Spectinomycin] showed a remaining activity at 1.25 µM ([1]; Well no.=3174) of 103% and a remaining activity at 3.75 µM ([2]; Well no.=3174) of 110%.
For `CCN(CC)CCNC(=O)c1c(C)[nH]c(/C=C2\C(=O)Nc3ccc(Cl)cc32)c1C` [SU11652], the remaining activity at 1.25 µM ([1]; Well no.=2565) was 93.6% and the remaining activity at 3.75 µM ([2]; Well no.=2565) was 93.7%.
`C[C@]12CCC(=O)C(O)=C1CC[C@@H]1[C@@H]2CC[C@]2(C)C(=O)CC[C@@H]12` [Formestane] was tested, and the remaining activity at 1.25 µM ([1]; Well no.=2134) was 99.1% and the remaining activity at 3.75 µM ([2]; Well no.=2134) was 101%.
Work on `COc1cc2c(NC3CCN(C(C)C)CC3)nc(N3CCC(F)(F)CC3)nc2cc1OCCCN1CCCC1` [UNC0642] yielded a remaining activity at 1.25 µM ([1]; Well no.=7187) of 92.5% and a remaining activity at 3.75 µM ([2]; Well no.=7187) of 86.5%.
In the case of `Fc1cc(F)c2c(c1)C1C=CCC1C(c1cccnc1)N2` (stereo not shown) [6,8-difluoro-4-(3-pyridinyl)-3a,4,5,9b-tetrahydro-3H-cyclopenta[c]quinoline], the remaining activity at 1.25 µM ([1]; Well no.=5390) was 97.2% and the remaining activity at 3.75 µM ([2]; Well no.=5390) was 91.3%.
`c1ccc2c(c1)[I+]c1ccccc1-2` [Diphenyleneiodonium chloride] was tested, and the remaining activity at 1.25 µM ([1]; Well no.=591) was 99.6% and the remaining activity at 3.75 µM ([2]; Well no.=591) was 105%.
Compound `NC(N)=NC(N)=Nc1ccccc1` [1-Phenylbiguanide] has a remaining activity at 1.25 µM ([1]; Well no.=1263) of 102% and a remaining activity at 3.75 µM ([2]; Well no.=1263) of 102%.
